Measurements reported in patent US7368541B2, “Trace amine receptor 1 of the African green monkey” (Merck & Co., Inc., priority 2004, dated 2008).

target: agmTA1 receptor (Chlorocebus aethiops (Cercopithecus aethiops, African green monkey), UniProt A0A0D9SAC2, I11T/L334F); assay: CRE-luciferase reporter functional assay in HEK293 cells transiently expressing agmTA1 receptor; format: cell-based; details: HEK293 cells transfected with pcDNA3.1-agmTA1 and pCRE-Luc; agonist 0.1 nM to 100 μM, 16 to 18 hours; luciferase activity

**Q.** Which EC50 does the source give for `NCC(O)c1ccc(O)cc1` (stereo not drawn) [octopamine] here?
**A.** ~200 nM

**Q.** Which EC50 does the source give for `NCCc1c[nH]c2ccccc12` [tryptamine] here?
**A.** ~940 nM

**Q.** `NCCc1ccc(O)cc1` [tyramine] was tested. Which EC50 did it give?
**A.** ~16 nM
